Reference: paper PMC11755785 (Langmuir, 2025)

Legend:
[1] = Phase-solubility diagram with HP-β-CD; type: physicochemical; design: stability constant K1:2 with HP-β-CD: unit not given here
[2] = cited from earlier work
[3] = Flask-shaking 1-octanol/water partition, log D–pH profile fitted to Avdeef's diagram; type: physicochemical; settings: modified Britton–Robinson buffers pH 5–11.5, 298 K
Description: The aqueous-phase solvents were prepared by mixing 25 mM KH2PO4 and 25 mM Na2HPO4 solutions in 25 mM Pi buffer. The pH was adjusted before fixing the prescribed concentrations of the acid components of the buffer. The JP1 and JP2 buffer solutions were 10 mM sodium citrate/HCl buffer (pH 1.2) and Pi buffer (pH 6.8), which were prepared in compliance with the description for solution media for the dissolution test in Japanese Pharmacopeia (JP)-implemented international harmonization. The modified Britton–Robinson universal pH buffer comprised 28.6 mM KH2PO4, 28.6 mM HBO2, and 28.6 mM NaCl, titrated with 1 M NaOH (here, modified means elimination of barbital to cancel its interaction with organic solutes). For the partition equilibrium examination, the aqueous saturated 1-octanol phase comprised 1-octanol, which was flooded with a modified Britton–Robinson buffer adjusted to the appropriate pH in advance.
The hydrophobic drug dissolved in the aqueous saturated 1-octanol phase was mixed with an isochoric solution of the modified Britton–Robinson buffer (pH 5–11.5), saturated with 1-octanol. Thereafter, the samples in the screw-capped vials were machine-shaken at 298 K in a thermostatic chamber for 60 min and subsequently kept stationary for 60 min; the procedure corresponds to the conventional “flask-shaking” method.[41]−[43] After settling, the pH in the aqueous phase was confirmed using pH indicator strips (MColoHast pH 0–6.0, MQuant pH 7.5–14, and MQuant pH 0–14, Merck, Germany) to be that of the adjusted pH value. Aliquots (10 μL) from the 1-octanol and the aqueous layers were injected into the HPLC instrument. The 1-octanol/water partition coefficients, log P (equivalent to log KOW), and acid dissociation constants, pKa, were optimized using curve fitting, approximated by eq 1 [drawing 1] 1 which is Avdeef’s diagram[44] derived from the Henderson–Hasselbalch expression for the equilibrium between the protonated and deprotonated species. The curve-fitting procedures used the solver module of Microsoft Excel 2016 with the implemented GRG nonlinear option. Approximate curves corresponding to these optimized parameters were drawn, and the pKa and log P values for AVB, OXB, and CUR were obtained.

[4] = Phase-solubility diagram with β-CD
Description: The solutions were mechanically shaken at 298 K in a thermostatic chamber, and the supernatant was sampled and filtered after passage for appropriate periods. The concentration of the drug in the supernatant was determined using HPLC.
The phase-solubility diagram consists of the equilibrium concentration of the guest drug as the ordinate and the total concentration of the host CD as the abscissa.[45] If a straight line and parabolic curve can be approximated on the phase-solubility diagram, then, the curves are classified as AL- and AP-types in the Higuchi and Connors catalogs, respectively.[45],[46]
Multiple regression analysis of the measured data set to the total concentration of the host ([CD]) and its squares ([CD]^2) using eq 3 can be used to obtain the stability constants for a combination of the equimolar complex K1:1 and double-host associating complex K1:2.[45],[46] [drawing 3] 3 This is the sum of the dissociated (free) and associated (complexed) drug concentrations. Although the Benesi–Hildebrand equation with the square of the host concentration has been used for parabolic correlations, its validity remains unclear.
This curve is classified as the AN-type on the Higuchi and Connors catalog.[45]−[48] The curve is described by eq 4′ according to the Langmuir adsorption isotherm model.[47]−[51] To process with the linear regression analysis of ordinate ([CD]/γ) referred to abscissa ([CD]), the Hanes–Woolf expression in eq 4′ may be used [drawing 4] 4 [drawing 5] 4′ where n indicates the asymptotic concentration of the drug associated with CD (saturation, maximal γ) and K is equivalent to the drug/CD complex stability constant. […] The stoichiometry of a complex of drugs with CD is difficult to determine; the prevailing opinion is that more than one guest molecule incorporates a host molecule and that hydration or ionization of the guest regulates the solubility of the complex.[46]
Szejtili[46] stated that, in rare cases, the ascending region at lower host concentrations is followed by a plateau region, similar to that of the AN-type saturation curve. Simultaneously, it terminates at any host concentration threshold. It is named the BS-type in the Higuchi and Connors catalog,[45]−[48] and for concentrations higher than the threshold, the guest concentration decreases along a hyperbola, probably according to the solubility product KSP.[49] To analyze this type of pattern, a hypothesis that is yet to be discussed is required.[52] […] At the threshold concentration of CD, the scale of the aggregated dispersoids transcends an upper limit, and the aggregation induces subsequent sedimentation.[52] Thus, the solubility product may be considered a property of poorly soluble aggregated dispersoids containing a tolerable amount of the drug and an excess amount of CD.

[5] = Molar absorption coefficients of 270 and 360 nm peaks (UV–vis calibrated by NMR molar ratio); type: physicochemical
Source text: From NMR titration, the diketo and enol forms were expected to be 15.3 and 84.7%, respectively. Therefore, the abscissae of the regression lines were condensed to the species contents, leading to the molar absorption coefficients (i.e., absorbance gradients to the molarity) for the diketo and keto-enol forms being approximately 8.1 × 10^7 and 4.3 × 10^7 L/mol. Figure S13 confirms that the molar absorption coefficients for the diketo and keto-enol forms in the isochoric acetonitrile/water solvent were approximately 13.8 × 10^7 and 3.6 × 10^7 L/mol, respectively. The obtained parameters allowed the absorbance to be converted into AVB molarity.

[6] = Photostability under solar light, UV–vis spectra; type: physicochemical; settings: solar light 4 h; 50 μM; presence or absence of β-CD
Description: The photostability of the drug under solar light was evaluated using UV–vis spectral measurements. Sample solutions were exposed to solar light outdoors at a sunny location on a latitude of 35.92° N and a longitude of 139.91° E for 4 h, from 12:00 to 16:00, at an average temperature of 284.55 K.

[7] = 25 mM Pi/NaOH buffer pH 6.8, 298 K, Figure 2, in M-1 (unit assumed)
[8] = regression with 2-order equation, pH 6.8

**Q.** Which “stability constant K1:2 with HP-β-CD” value ([1]; 25 mM Pi/NaOH buffer pH 6.8, 298 K, Figure 2) does the source give for “p-tert-butyl-p-methoxydibenzoylmethane [AVB]” here?
**A.** Its value is 40.4.

**Q.** What about the “stability constant K1:1 with HP-β-CD” value [1, 7] of the same substance?
**A.** The value was 90.3.

**Q.** And the “stability constant K1:1 with HP-β-CD (equimolar complex)” value [1, 8]?
**A.** The value was 90.3 L/mol.

**Q.** What about the “stability constant K1:2 with HP-β-CD (1:2-ratio complex)” value [1, 8] of the same substance?
**A.** The value was 40.4 L^2/mol^2.

**Q.** What about the “log Kow” value ([2]; Chart 1) of the same substance?
**A.** Its value is 4.51.

**Q.** And the “reported log P” value [2]?
**A.** Its value is 4.51.

**Q.** What about the “reported pKa” value [2] of the same substance?
**A.** The value was 9.7.

**Q.** And the “partition coefficient log KOW” value ([2]; introduction, reference not given)?
**A.** The value was 4.51.

**Q.** What about the “acid dissociation constant, pKa” value ([3]; from log D–pH curve fitting) of the same substance?
**A.** The value was 8.59.

**Q.** And the “1-octanol/water partition coefficient, log P” value ([3]; neutral form, curve fitting)?
**A.** Its value is 4.27.

**Q.** What about the “stability constant K1:1 with β-CD” value [4, 7] of the same substance?
**A.** The value was 1023.

**Q.** What about the “stability constant K1:1 with β-CD” value ([4]; equimolar complex, pH 6.8) of the same substance?
**A.** The value was 1023 L/mol.

**Q.** And the “molar absorption coefficient, diketo form (270 nm)” value ([5]; isochoric acetonitrile/water)?
**A.** Its value is “approximately 13.8 × 10^7 L/mol”.

**Q.** And the “molar absorption coefficient, keto-enol form (360 nm)” value ([5]; isochoric acetonitrile/water)?
**A.** Its value is ~3.6e+07 L/mol.

**Q.** What about the “molar absorption coefficient, keto-enol form (360 nm)” value ([5]; methanol/H2O = 7:3) of the same substance?
**A.** The value was ~4.3e+07 L/mol.

**Q.** And the “stability under solar light compared to UVA1 irradiation” value [6]?
**A.** The value was “no significant changes in stability”.
